The values that follow come from PMC4239038, “The Potent Cdc7-Dbf4 (DDK) Kinase Inhibitor XL413 Has Limited Activity in Many Cancer Cell Lines and Discovery of Potential New DDK Inhibitor Scaffolds” (PLoS ONE, 2014).

Structures can show the parent of a compound that is named as a salt.

In the first assay the target is T1, purified DDK (Homo sapiens, UniProt O00311).
T1 construct: His6-Smt3 (SUMO) (N, cleaved yes); made in house; host or cells: E. coli BL21-RIPL (pKT37, pETDuet-1 vector)
T1 sequence (O00311 whole entry): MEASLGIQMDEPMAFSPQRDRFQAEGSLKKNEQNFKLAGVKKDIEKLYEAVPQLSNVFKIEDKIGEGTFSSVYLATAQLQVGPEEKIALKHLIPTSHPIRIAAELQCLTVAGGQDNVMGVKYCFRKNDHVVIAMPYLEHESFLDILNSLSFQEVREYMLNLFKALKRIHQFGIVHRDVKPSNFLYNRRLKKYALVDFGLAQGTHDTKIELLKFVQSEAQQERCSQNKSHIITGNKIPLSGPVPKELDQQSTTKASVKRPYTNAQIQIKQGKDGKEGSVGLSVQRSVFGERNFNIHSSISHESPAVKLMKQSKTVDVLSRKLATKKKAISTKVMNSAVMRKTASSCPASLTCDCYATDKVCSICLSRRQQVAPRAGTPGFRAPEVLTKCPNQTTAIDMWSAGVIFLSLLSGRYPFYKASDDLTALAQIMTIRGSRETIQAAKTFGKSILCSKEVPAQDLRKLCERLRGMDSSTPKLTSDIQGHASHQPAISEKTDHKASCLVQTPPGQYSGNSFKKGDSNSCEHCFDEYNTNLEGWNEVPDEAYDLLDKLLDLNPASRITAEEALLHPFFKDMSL
T1 sequence (Q9UBU7 341-674 partner limits assumed): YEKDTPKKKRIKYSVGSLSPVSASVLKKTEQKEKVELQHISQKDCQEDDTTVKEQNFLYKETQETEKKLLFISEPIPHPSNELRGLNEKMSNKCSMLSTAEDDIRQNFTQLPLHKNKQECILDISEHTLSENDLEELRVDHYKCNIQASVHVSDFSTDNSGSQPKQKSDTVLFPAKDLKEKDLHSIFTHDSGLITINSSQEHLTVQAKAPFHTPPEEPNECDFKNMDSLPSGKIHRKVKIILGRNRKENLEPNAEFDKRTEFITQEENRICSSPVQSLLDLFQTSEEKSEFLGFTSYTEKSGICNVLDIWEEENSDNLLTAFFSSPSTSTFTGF
The experiment in a line: DDK thermal stability shift assay (TSA). The class given is binding. The settings on record: 20 µM.
As to `CS(=O)(=O)c1ccc(-c2nc(-c3ccc(F)cc3)c(-c3ccncc3)[nH]2)cc1` [SB 203580, Sulfone], the ΔTm amounted to 0.5 °C.

The assay is the same for the next values; noted with them: library screen, 10 µM compound.
For the compound `CNC1CC2OC(C)(C1OC)n1c3ccccc3c3c4c(c5c6ccccc6n2c5c31)C(=O)NC4O` (stereo not shown) [UCN-01, 7-Hydroxystaurosporine], the ΔTm at 10 µM stood at 2.1 °C.

The assay is the same for the next values; noted with them: library screen, 20 µM compound.
As to `Cc1[nH]c(/C=C2\C(=O)Nc3ccc(S(=O)(=O)N(C)c4cccc(Cl)c4)cc32)c(C)c1C(=O)N1CCN(C)CC1` [Met Kinase Inhibitor], the ΔTm is 0.2 °C. Same read-out and setting: in the case of `Nc1ccc2ncnc(NCCc3ccc(Oc4ccccc4)cc3)c2c1` [NF-kB Acjvajon Inhibitor] it was 0.3 °C.

For `CC[C@H](CO)Nc1nc(NCc2ccccc2O)c2ncn(C(C)C)c2n1` [Olomoucine II], the ΔTm at 20 µM amounted to 0.2 °C.

On to `Cn1cnc2c(NCc3ccccc3)nc(NCCO)nc21` [Olomoucine], for which the ΔTm at 20 µM turned out to be 0.1 °C. `CNc1cc2c(Nc3cccc(Br)c3)ncnc2cn1` [PD 158780]: the ΔTm was 0.2 °C. As for `Cc1[nH]c(/C=C2\C(=O)Nc3ccc(S(=O)(=O)Cc4c(Cl)cccc4Cl)cc32)c(C)c1C(=O)N1CCC[C@@H]1CN1CCCC1` [PHA 665752], the ΔTm at 20 µM was found to be 0.4 °C. As to `Cc1ccc([N+](=O)[O-])cc1S(=O)(=O)N(C)/N=C/c1cnc2ccc(Br)cn12` [PI 3-Kα Inhibitor VIII, N-((1E)-(6-Bromoimidazo[1,2-a]pyridin-3-yl)methylene)-N'-methyl-N''-(2-methyl-5-nitrobenzene)sulfonohydrazide, HCl], the ΔTm at 20 µM turned out to be 2.6 °C.

Turning to `Cc1cc(C(C)Nc2ccccc2)c2nc(N3CCOCC3)cc(=O)n2c1` (stereo not shown) [PI 3-Kβ Inhibitor VI, TGX-221], the ΔTm is 0 °C. Regarding `O=C1NC(=O)C(=Cc2ccc(-c3ccc(F)cc3O)o2)S1` [PI 3-Kγ/CKII Inhibitor], the ΔTm came out at 0.3 °C. Regarding `Nc1ccc(-c2cccc3c(=O)cc(N4CCOCC4)oc23)cc1` [PI 828], the ΔTm was found to be 0.6 °C. For the compound `CCCOc1ccc(/C=C2/SC(=O)NC2=O)cc1` [PIM1/2 Kinase Inhibitor VI], the ΔTm is 0.2 °C. Regarding `O=C1NC(=O)C(c2cn(CCCn3ccnc3)c3ccccc23)=C1Nc1ccccc1` [PKCb Inhibitor], the ΔTm was 0.2 °C.

On to `O=C1Nc2ccc(Cl)cc2/C1=C/c1cc(Cl)c(O)c(Cl)c1` [PKR Inhibitor, NegaKve Control], for which the ΔTm came to 0.2 °C. As for `Nc1ncnc2c1cnn2-c1ccccc1` [PP3], the ΔTm was 0.6 °C.

As for `CC(C)[C@H](CO)Nc1nc(Nc2cccc(Cl)c2)c2ncn(C(C)C)c2n1` [Purvalanol A], the ΔTm at 20 µM worked out at 0.2 °C. `CO[C@H]1C[C@@H]2CC[C@@H](C)[C@@](O)(O2)C(=O)C(=O)N2CCCC[C@H]2C(=O)O[C@H]([C@H](C)C[C@@H]2CC[C@@H](O)[C@H](OC)C2)CC(=O)[C@H](C)/C=C(\C)[C@@H](O)[C@@H](OC)C(=O)[C@H](C)C[C@H](C)/C=C/C=C/C=C/1C` [Rapamycin]: the ΔTm at 20 µM was 0 °C.

Consider `COc1ccc2nc3c(c(C)nn3C)c(NCCOCCO)c2c1` [Ras/Rac TransformaEon Blocker, SCH 51344], for which the ΔTm was 0.5 °C.

As for `c1nc2nc(Nc3ccc(N4CCOCC4)cc3)nc(NC3CCCCC3)c2[nH]1` [Reversine], the shift in melting temperature (ΔTm) at 20 µM was found to be 1.4 °C. For `O=C(Nc1ccncc1)Nc1c(Cl)cc(Cl)cc1Cl` [Rho Kinase Inhibitor II], the ΔTm was found to be 0 °C.

On to `O=C(Nc1ccc(-c2cn[nH]c2)cc1)C1COc2ccccc2O1` (stereo not shown) [Rho Kinase Inhibitor V], for which the ΔTm turned out to be 1.5 °C. Consider `CS(=O)(=O)O.Cn1cc(C2=C(c3cn(CCCSC(=N)N)c4ccccc34)C(=O)NC2=O)c2ccccc21` [Ro 31-8220 mesylate], for which the ΔTm is 1.5 °C. For the compound `CC(=O)c1c(O)c(C)c(O)c(Cc2c(O)c3c(c(C(=O)/C=C/c4ccccc4)c2O)OC(C)(C)C=C3)c1O` [Ro]lerin, 3'-[(8-Cinnamoyl-5,7-dihydroxy-2,2-dimethyl-2H-1-benzopyran-6-yl)methyl]-2',4',6'-trihydroxy-5'-methylacetophenone], the shift in melting temperature (ΔTm) at 20 µM stood at 2.4 °C. As to `Oc1ccc(-c2nc(-c3ccncc3)c(-c3ccc(F)cc3)[nH]2)cc1` [SB 202190], the ΔTm at 20 µM was 0.6 °C. With `C[S+]([O-])c1ccc(-c2nc(-c3ccc(F)cc3)c(-c3ccncc3)[nH]2)cc1.Cl` (stereo not shown) [SB 203580 hydrochloride], the ΔTm was 0 °C.

For `NC(=O)c1ccc(-c2nc(-c3ccc4c(c3)OCO4)c(-c3ccccn3)[nH]2)cc1` [SB 431542], the ΔTm at 20 µM was found to be 0 °C. As to `N#C/C(=C(\N)Sc1ccc(N)cc1)c1ccccc1C(F)(F)F` [SL 327], the ΔTm at 20 µM was found to be 0.5 °C. For the compound `Oc1c2ccccc2c2c3c(cccc13)N=N2` [SP 600125], the ΔTm at 20 µM was determined as 0.2 °C. For `O=C(O)c1ccc2c3c1cccc3c(=O)n1c3ccccc3nc21` [STO-609], the ΔTm at 20 µM was 0.2 °C. Turning to `CN(C)S(=O)(=O)c1ccc2c(c1)/C(=C/c1cc3c([nH]1)CCCC3)C(=O)N2` [SU6656], the ΔTm at 20 µM is 0.1 °C. On to `COc1ccc2c(c1)/C(=C/c1cnc[nH]1)C(=O)N2` [SU9516], for which the ΔTm at 20 µM worked out at 0 °C. On the same count and under the same terms, as for `CCN(CC)CCNC(=O)c1c(C)[nH]c(/C=C2\C(=O)Nc3ccc(Cl)cc32)c1C` [SU11652], the figure is 1.8 °C.

Turning to `Cl.Cl.NCCNc1ncc(C(N)=O)c(Nc2cccc(C(F)(F)F)c2)n1` [Syk Inhibitor II], the ΔTm was 1.2 °C. `Brc1c(Br)c(Br)c2[nH]nnc2c1Br` [TBB, 4,5,6,7-Tetrabromobenzotriazole]: the ΔTm turned out to be 2.5 °C.

Regarding `COc1cc2ncnc(Nc3cccc(O)c3)c2cc1OC` [WHI-P180, Hydrochloride], the ΔTm is 0 °C. On the same count and under the same terms, as for `COc1cc2ncnc(Nc3ccc(Cl)cc3F)c2cc1OC.Cl` [ZM 306416 hydrochloride], the figure is 0 °C; as for `Cc1ccc(NC(=O)c2cccc(N(C)C)c2)cc1NC(=O)c1ccc(O)cc1` [ZM 336372], 0.5 °C; as for `CCCCCCCCCCCCCCCCn1cc[n+](Cc2ccccc2)c1C.[I-]` [eEF-2 Kinase Inhibitor, NH125], 0 °C. Bisindolylmaleimide III, Hydrochloride: the ΔTm was determined as 51 °C. Still for that read-out and setting: in the case of Cdk1/2 Inhibitor III it was 1.1 °C; in that of DNA-PK Inhibitor III, 0.2 °C. On the same count and under the same terms, as for IGF-1R Inhibitor II, the figure is 0 °C. In the case of JAK3 Inhibitor II, the ΔTm came out at 0.8 °C. With JAK3 Inhibitor IV, the ΔTm amounted to 0.3 °C. With JAK Inhibitor I, the ΔTm is 1.2 °C.

As for KN-62, the ΔTm is 0.7 °C. Consider LY 364947, for which the ΔTm is 0.6 °C. For PI 3-Kb Inhibitor II, the ΔTm turned out to be 0.2 °C. Same read-out and setting: as for PP1 Analog II, 1NM-PP1, the figure is 0.2 °C; as for Ro-31-8220, 1.4 °C. Take “VEGF Receptor Tyrosine Kinase Inhibitor II”: the shift in melting temperature (ΔTm) was determined as 0.2 °C. For Wee1/Chk1 Inhibitor, the ΔTm turned out to be 0 °C.

The assay is the same for the next values; noted with them: library screen, 20 µM compound; 20 µM.
On to `Nc1[nH]nc2nc3ccccc3nc12` [NSC 693868], for which the ΔTm amounted to 0.2 °C. For the compound `O=c1cc(N2CCOCC2)oc2c1ccc1ccccc12` [NU 7026], the ΔTm was determined as 1.2 °C. For the compound `CN(C)c1ccc(/C=C2\C(=O)Nc3ccccc32)cc1` [SU 4312], the ΔTm came out at 0.2 °C.

The assay is the same for the next values; noted with them: titration, beginning at a 1 µM concentration.
With `c1ccc2c(-c3ccncc3)c[nH]c2c1` [Rockout, 3-pyridin-4-yl-1H-indole], the ΔTm was not below 2 °C.

A further assay has as its system DDK.
Assay: not given
To be noted: read-out: DDK IC50 (in vitro); cited from earlier work.
On to `N#Cc1ccc2ccn(-c3cc(N)ncn3)c2n1` [1-(6-aminopyrimidin-4-yl)pyrrolo[2,3-b]pyridine-6-carbonitrile], for which the IC50 was 9 nM. As to `NC(=O)c1cc(-c2ccnc(N)n2)[nH]c1-c1ccccc1` [5-(2-Amino-pyrimidin-4-yl)-2-phenyl-1H-pyrrole-3-carboxamide], the IC50 is 22 nM. On to `C=CCc1c(C)nc2sc3c(N)ncnc3c2c1C` [7,9-dimethyl-8-prop-2-enylpyrido[2,3]thieno[2,4-d]pyrimidin-4-amine], for which the IC50 is 20 nM.

Regarding `O=C1N=C(NCc2ccccc2)S/C1=C\c1c[nH]c2ncccc12` [(5Z)-2-(Benzylamino)-5-(1H-pyrrolo[2,3-b]pyridin-3-ylmethylene)-1,3-thiazol-4(5H)-one], the IC50 was 9 nM. With `Nc1nccc(-c2cc3c([nH]2)[C@@H](CCF)CNC3=O)n1` [[(S )-2-(2-aminopyrimidin-4-yl)-7-(2-fluoro-ethyl)-1,5,6,7-tetrahydropyrrolo[3,2-c]pyridin-4-one], the IC50 is 2 nM.

The next assay deals with T1, purified DDK. The experiment in a line: In vitro (γ)-32P ATP DDK kinase assay (DDK auto-phosphorylation). The settings on record: increasing inhibitor concentrations. The class given is biochemical.
As for `Cc1ccc([N+](=O)[O-])cc1S(=O)(=O)N(C)/N=C/c1cnc2ccc(Br)cn12` [PI 3-Kα Inhibitor VIII, N-((1E)-(6-Bromoimidazo[1,2-a]pyridin-3-yl)methylene)-N'-methyl-N''-(2-methyl-5-nitrobenzene)sulfonohydrazide, HCl], the midpoint of inhibition, the IC50, lay at 1300 nM. In turn, `c1ccc2c(-c3ccncc3)c[nH]c2c1` [Rockout, 3-pyridin-4-yl-1H-indole] came in with an IC50 of 860 nM.
